Results on one molecule are retold here after patent US20150368248A1, “2-SUBSTITUTED-6-BIARYLMETHYLAMINO-9-CYCLOPENTYL-9H-PURINE DERIVATIVES, USE THEREOF AS MEDICAMENTS, AND PHARMACEUTICAL COMPOSITIONS” (UNIVERZITA PALACKEHO V OLOMOUCI, priority 2013, published 2015).

SMILES strings stand for the structures.

The target of data set [1] is T1, CDK5/p35 (Homo sapiens, UniProt Q00535).
T1 construct: purchased ProQinase GmbH (Freiburg, Germany)
Kind of data set: Kinase inhibition assay, recombinant kinase, [γ-33P]ATP. Format: biochemical. Particulars: Table 12; read-out: IC50, CDK5/p25NCK.

For data set [2], the system named is primary human hepatocytes (PHHs). Kind of data set: MTT cell viability assay (Example 40). Format: cell-based. Particulars: Hepatocyte. The method, then: Non-neoplastic tissue samples from liver resections were obtained from patients undergoing partial hepatectomy for metastatic liver tumors of colorectal cancer. Experimental procedures were performed according to the guidelines of the charitable state controlled foundation HTCR (Human Tissue and Cell Research, Regensburg, Germany), with the informed patient's consent approved by the local ethical committee of the University of Regensburg. PHHs were isolated using a modified two-step EGTA/collagenase perfusion procedure as described previously (33). Viability of isolated PHHs was determined by trypan blue exclusion and cells with a viability of more than 85% were used for further work. Cells were plated on collagen-coated plates (BD Biosciences, San Jose, USA) at a density of 1.2×10^5 cells/cm^2. The medium consisted of DMEM with 10% FCS, 2 mM L-glutamine, […], 100 U/ml penicillin and supplements as follows: 125 mU/ml insulin, 7.3 ng/ml glucagon and 0.8 μg/ml hydrocortisone. Cells were incubated at 37° C. in a humidified incubator with 5% CO2 and media were changed daily.
Cell viability was determined using the 3-(4,5 dimethylthiazol-2-yl)-2,5-diphenyltetrazolium bromide (MTT) assay. Briefly, cells were seeded in triplicates at a density of 6×10^3 cells per well. […] The absorbance was measured at 620 nm by employing a microplate reader (Asys HiTech, Salzburg, Austria). […]

Data set [3] deals with PARP-1. Nature of the data set: Immunoblot analysis of PARP cleavage. Format: cell-based, human. The method, then: Effect of BP14 on cell apoptosis was complemented by immunoblot analysis of selected apoptotic proteins. For immunoblotting, cell were detached with rubber policeman and washed three times with ice-cold PBS and lysed in buffer (50 mM Tris, pH 7.4, 250 mM NaCl, 5 mM EDTA, 50 mM NaF, 1 mM Na3VO4, 1% Nonidet P40) containing mixture of protease and phosphatase inhibitors (Sigma-Aldrich, USA). 20 μg of total proteins were separated by SDS-polyacrylamide gel electrophoresis (SDS-PAGE) and transferred onto nitrocellulose membranes. Membranes were blocked in 5% milk and 0.1% Tween 20 in PBS and probed overnight with specific antibodies for PARP-1 (clone F-2; Santa Cruz Biotechnology, USA), Mcl-1 (S-19; Santa Cruz Biotechnology, USA) and β-actin (C-4, Santa Cruz Biotechnology, USA). All primary antibodies were diluted in PBS containing 5% powdered milk; 0.1% Tween 20. Peroxidase conjugated rabbit anti-mouse immunoglobulin or porcine anti-rabbit immunoglobulin antisera (DAKO, Denmark) were used as the secondary antibodies and visualised with ECL reagents (Amersham-Pharmacia, Little Chalfont, UK).
Immunoblotting was performed as described previously (36). The primary antibodies were used at the dilutions: anti-phospho-Ser5 RNA Pol II (CDK7; Bethyl Laboratories, Montgomery, USA), 1:1,000; anti-phospho-Ser2 RNA Pol II (CDK9; Bethyl Laboratories, Montgomery, USA), 1:1,000; anti-RNA Pol II (Santa Cruz Biotechnology, Santa Cruz, USA), 1:1,000; anti-PARP (Cell Signaling Technology, Beverly, USA), 1:1,000; anti-β-actin (Sigma, St. Louis, USA), 1:2.500. Horseradish peroxidase-conjugated secondary antibodies (Calbiochem, LaJolla, USA) were used at dilutions of 1:10,000.

The test system of data set [4] is HepG2 or PLC cells. Kind of data set: BrdU incorporation in cultured cells. In kind it is cell-based, human. Particulars: 1 μM, 24 hours. The method, then:
BrdU incorporation into cell nuclei directly indicates cell proliferation. Cultured cells were grown in medium containing 10 μM 5-bromo-2′-deoxy-uridine (BrdU) for 1 hour. After removing labeling medium, cells were fixed and DNA denatured with a fixing/denaturing solution containing 2 M HCl for 30 minutes at 37° C. To analyze BrdU incorporation in vivo, 200 μl Ringer solution containing 1 mg BrdU was intraperitoneally injected into xenografted mice 2 hours prior to analysis. Mice were sacrificed and tumor tissue was fixed in 4% formaldehyde and processed for immunohistochemistry. The incorporation of BrdU into cellular DNA was detected using a monoclonal anti-BrdU antibody (Sigma, St. Louis, USA) followed by incubation with a peroxidase-conjugated secondary antibodies (Calbiochem, LaJolla, USA) at dilutions of 1:10,000.
Background: Uptake of a labelled nucleoside into DNA is a usual measure of proliferation.

In data set [5] the test system is HepG2 and PLC cells. Kind of data set: Flow cytometry of cellular DNA content. In kind it is cell-based, human. To be noted: 24 hours. The method, then:
The analysis of cellular DNA content was performed with a multicolor BD LSRFortessa cell analyzer (Becton Dickinson, Franklin Lakes, USA). Prior to the cytofluorometric measurement, about 5×10^5 cells were washed with phosphate buffered saline (PBS), fixed in 70% ethanol, washed again with PBS and treated with 100 μg RNAse A/50 μg propidium iodide per ml for 10 minutes to stain cellular DNA. The percentage of cells in the various cell cycle positions were calculated using a software package from the same manufacturer.
(Flow cytometry measures light scatter and fluorescence of single cells or particles in a stream.)

Data set [6] deals with caspases-3/7 in Hep3B carcinoma cells. Kind of data set: Caspase-3/7 activity in lysates of treated cells (Example 33). Format: cell-based, human. Particulars: 24 h treatment, concentration of 3xIC50. The method, then: Measurements of proapoptotic properties of BP14 were based on quantification of enzymatic activities of caspases-3/7. For caspase assays, treated cells were harvested by centrifugations and homogenized in an extraction buffer (10 mM KCl, 5 mM Hepes, 1 mM EDTA, 1 mM EGTA, 0.2% CHAPS, inhibitors of proteases, pH 7.4) on ice for 20 min. The homogenates were clarified by centrifugation at 10,000 g for 20 min at 4° C., then proteins were quantified by the Bradford method and diluted to the same concentration. Lysates were then incubated for 5 h with 100 μM Ac-DEVD-AMC as substrate (Sigma-Aldrich) in an assay buffer (25 mM PIPES, 2 mM EGTA, 2 mM MgCl2, 5 mM DTT, pH 7.3). The fluorescence of the product was measured using a Fluoroskan Ascent microplate reader (Labsystems, Helsinki, Finland) at 346 nm/442 nm (ex/em).

Data set [7] relates to HepG2, PLC and Hep3B cells. Nature of the data set: Analysis of proliferation (cell counter). In kind it is cell-based, human. To be noted: 0.2 μM. Here is the method:
6×10^4 cells were seeded on 12-well plates and incubated with inhibitors at different concentrations for 3 days. Cell numbers were determined at various time points after trypsinization using a cell counter (CASY, Scharfe Systems, Reutlingen, Germany). Three independent experiments were performed in triplicates.

T1 sequence (Q00535 whole entry): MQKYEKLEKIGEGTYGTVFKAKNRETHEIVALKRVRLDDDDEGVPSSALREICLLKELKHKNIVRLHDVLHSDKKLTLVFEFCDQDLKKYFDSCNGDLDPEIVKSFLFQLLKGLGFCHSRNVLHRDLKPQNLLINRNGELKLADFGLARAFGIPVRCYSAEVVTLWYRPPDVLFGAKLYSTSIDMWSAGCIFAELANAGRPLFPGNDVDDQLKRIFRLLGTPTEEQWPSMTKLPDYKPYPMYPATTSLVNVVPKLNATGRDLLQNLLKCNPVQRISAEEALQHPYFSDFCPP
T1 sequence (Q15078 whole entry partner): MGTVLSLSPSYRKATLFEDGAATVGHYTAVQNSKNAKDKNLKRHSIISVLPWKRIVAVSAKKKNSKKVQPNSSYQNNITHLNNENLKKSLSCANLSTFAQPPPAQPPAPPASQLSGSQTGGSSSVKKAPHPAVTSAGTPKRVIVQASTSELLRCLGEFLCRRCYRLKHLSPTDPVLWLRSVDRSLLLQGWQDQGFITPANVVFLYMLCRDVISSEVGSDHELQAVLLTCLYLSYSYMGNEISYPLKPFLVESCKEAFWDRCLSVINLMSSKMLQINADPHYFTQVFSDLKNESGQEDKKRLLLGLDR

For the molecule `NC1CCC(Nc2nc(NCc3ccc(-c4ccco4)nc3)c3ncn(C4CCCC4)c3n2)CC1` (stereo not shown) [BP14, N^2-(4-amino-cyclohexyl)-9-cyclopentyl-N^6-(6-furan-2-yl-pyridin-3-ylmethyl)-9H-purine-2,6-diamine], the IC50 in data set [1] turned out to be 0.015 µM; in data set [2], 20.1 µM. For the same molecule, in data set [3] (0.2 μM, HepG2 and p53-mutated PLC cells), the “cleavage of PARP and p53 expression” value is “induced cleavage of PARP and p53 expression”. Also, the “protein level of PARP-1” value in data set [3] (HUH-7 cells, concentration up to 3xIC50) is reported as “no effect”. Moreover, in data set [3] (Hep3B and AHK3p cells, 24 hours), the “caspase-3-cleaved PARP-1 fragment at 89 kDa” value is “markedly observed”. In addition, the “PARP processing in PHHs” value in data set [3] (primary human hepatocytes) is “failed to induce PARP processing”. Further, the “decrease of BrdU incorporation as compared to control” value in data set [4] is reported as “more than 2 fold”. Besides, in data set [5], the cell cycle distribution entry was “accumulation of HepG2 and PLC cells in the G2 phase”. The “activity of caspase-3/7 compared with the untreated control” value in data set [6] is recorded as “twenty-fold increase”. For the same molecule, the proliferation kinetics entry in data set [7] is “cytostatic effect”.
